According to ChEMBL document CHEMBL2040759, “Design, synthesis and anticancer activity of nitric oxide donating/chalcone hybrids” (2012):

Legend:
Type in all cases: functional
HCC 2998 = test: Growth inhibition of human HCC2998 cells assessed as cell growth at 10^-5 M after 48 hrs by SRB assay; conditions: HCC 2998, 48 h, read-out: Activity
OVCAR-3 = test: Growth inhibition of human OVCAR3 cells assessed as cell growth at 10^-5 M after 48 hrs by SRB assay; conditions: OVCAR-3, 48 h, read-out: Activity
[1] = Growth inhibition of human Hs 578T cells assessed as cell growth at 10^-5 M after 48 hrs by SRB assay; conditions: read-out: Activity
KM12 = test: Growth inhibition of human KM12 cells assessed as cell growth at 10^-5 M after 48 hrs by SRB assay; conditions: KM12, 48 h, read-out: Activity
UACC-62 = test: Growth inhibition of human UACC62 cells assessed as cell growth at 10^-5 M after 48 hrs by SRB assay; conditions: UACC-62, 48 h, read-out: Activity
SF-295 = test: Growth inhibition of human SF295 cells assessed as cell growth at 10^-5 M after 48 hrs by SRB assay; conditions: SF-295, 48 h, read-out: Activity
M14 = test: Growth inhibition of human M14 cells assessed as cell growth at 10^-5 M after 48 hrs by SRB assay; conditions: M14, 48 h, read-out: Activity
[2] = Growth inhibition of human […] cells assessed as cell growth at 10^-5 M after 48 hrs by SRB assay; conditions: RPMI18226, 48 h, read-out: Activity
MCF7 = test: Growth inhibition of human MCF7 cells assessed as cell growth at 10^-5 M after 48 hrs by SRB assay; conditions: MCF7, 48 h, read-out: Activity
CCRF-CEM = test: Growth inhibition of human CCRF-CEM cells assessed as cell growth at 10^-5 M after 48 hrs by SRB assay; conditions: read-out: Activity
OVCAR-4 = test: Growth inhibition of human OVCAR4 cells assessed as cell growth at 10^-5 M after 48 hrs by SRB assay; conditions: OVCAR-4, 48 h, read-out: Activity
MDA-MB-435 = test: Growth inhibition of human MDA-MB-435 cells assessed as cell growth at 10^-5 M after 48 hrs by SRB assay; conditions: MDA-MB-435, 48 h, read-out: Activity
SK-MEL-2 = test: Growth inhibition of human SK-MEL-2 cells assessed as cell growth at 10^-5 M after 48 hrs by SRB assay; conditions: SK-MEL-2, 48 h, read-out: Activity
DU-145 = test: Growth inhibition of human DU145 cells assessed as cell growth at 10^-5 M after 48 hrs by SRB assay; conditions: DU-145, 48 h, read-out: Activity
COLO 205 = test: Growth inhibition of human COLO205 cells assessed as cell growth at 10^-5 M after 48 hrs by SRB assay; conditions: COLO 205, 48 h, read-out: Activity
OVCAR-5 = test: Growth inhibition of human OVCAR5 cells assessed as cell growth at 10^-5 M after 48 hrs by SRB assay; conditions: OVCAR-5, 48 h, read-out: Activity
RXF 393 = test: Growth inhibition of human RXF393 cells assessed as cell growth at 10^-5 M after 48 hrs by SRB assay; conditions: RXF 393, 48 h, read-out: Activity
[3] = Growth inhibition of human NCI-ADR-RES cells assessed as cell growth at 10^-5 M after 48 hrs by SRB assay; conditions: read-out: Activity
SNB-75 = test: Growth inhibition of human SNB75 cells assessed as cell growth at 10^-5 M after 48 hrs by SRB assay; conditions: SNB-75, 48 h, read-out: Activity
A498 = test: Growth inhibition of human A498 cells assessed as cell growth at 10^-5 M after 48 hrs by SRB assay; conditions: A498, 48 h, read-out: Activity
MDA-MB-231 = test: Growth inhibition of human MDA-MB-231 cells assessed as cell growth at 10^-5 M after 48 hrs by SRB assay; conditions: MDA-MB-231, 48 h, read-out: Activity
786-0 = test: Growth inhibition of human 786-0 cells assessed as cell growth at 10^-5 M after 48 hrs by SRB assay; conditions: 786-0, 48 h, read-out: Activity
T47D = test: Growth inhibition of human T47D cells assessed as cell growth at 10^-5 M after 48 hrs by SRB assay; conditions: read-out: Activity
IGROV-1 = test: Growth inhibition of human IGROV1 cells assessed as cell growth at 10^-5 M after 48 hrs by SRB assay; conditions: IGROV-1, 48 h, read-out: Activity
EKVX = test: Growth inhibition of human EKVX cells assessed as cell growth at 10^-5 M after 48 hrs by SRB assay; conditions: read-out: Activity
Malme-3M = test: Growth inhibition of human MALME-3M cells assessed as cell growth at 10^-5 M after 48 hrs by SRB assay; conditions: read-out: Activity
SW-620 = test: Growth inhibition of human SW620 cells assessed as cell growth at 10^-5 M after 48 hrs by SRB assay; conditions: SW-620, 48 h, read-out: Activity
UACC-257 = test: Growth inhibition of human UACC257 cells assessed as cell growth at 10^-5 M after 48 hrs by SRB assay; conditions: UACC-257, 48 h, read-out: Activity
ACHN = test: Growth inhibition of human ACHN cells assessed as cell growth at 10^-5 M after 48 hrs by SRB assay; conditions: read-out: Activity
U-251 = test: Growth inhibition of human U251 cells assessed as cell growth at 10^-5 M after 48 hrs by SRB assay; conditions: U-251, 48 h, read-out: Activity
TK-10 = test: Growth inhibition of human TK10 cells assessed as cell growth at 10^-5 M after 48 hrs by SRB assay; conditions: TK-10, 48 h, read-out: Activity
BT-549 = test: Growth inhibition of human BT549 cells assessed as cell growth at 10^-5 M after 48 hrs by SRB assay; conditions: BT-549, 48 h, read-out: Activity
HCT-15 = test: Growth inhibition of human HCT15 cells assessed as cell growth at 10^-5 M after 48 hrs by SRB assay; conditions: HCT-15, 48 h, read-out: Activity
SF-268 = test: Growth inhibition of human SF268 cells assessed as cell growth at 10^-5 M after 48 hrs by SRB assay; conditions: SF-268, 48 h, read-out: Activity
OVCAR-8 = test: Growth inhibition of human OVCAR8 cells assessed as cell growth at 10^-5 M after 48 hrs by SRB assay; conditions: OVCAR-8, 48 h, read-out: Activity
HCT-116 = test: Growth inhibition of human HCT116 cells assessed as cell growth at 10^-5 M after 48 hrs by SRB assay; conditions: HCT-116, 48 h, read-out: Activity
PC-3 = test: Growth inhibition of human PC3 cells assessed as cell growth at 10^-5 M after 48 hrs by SRB assay; conditions: PC-3, 48 h, read-out: Activity

| SMILES | growth at 10 µM (HCC 2998) | growth at 10 µM (OVCAR-3) | growth at 10 µM [1] | growth at 10 µM (KM12) | growth at 10 µM (UACC-62) | growth at 10 µM (SF-295) | growth at 10 µM (M14) | growth at 10 µM [2] | growth at 10 µM (MCF7) | growth at 10 µM (CCRF-CEM) | growth at 10 µM (OVCAR-4) | growth at 10 µM (MDA-MB-435) | growth at 10 µM (SK-MEL-2) | growth at 10 µM (DU-145) | growth at 10 µM (COLO 205) | growth at 10 µM (OVCAR-5) | growth at 10 µM (RXF 393) | growth at 10 µM [3] | growth at 10 µM (SNB-75) | growth at 10 µM (A498) | also measured |
| --- | --- | --- | --- | --- | --- | --- | --- | --- | --- | --- | --- | --- | --- | --- | --- | --- | --- | --- | --- | --- | --- |
| O=C(CO[N+](=O)[O-])Nc1ccc(C(=O)/C=C/c2ccc3c(c2)OCO3)cc1 | 69.2% | 80.6% | 103% | 35.9% | 96% | 74.6% | 81.8% | 46.8% | 26.2% | 70% | 96.1% | 62.6% | 119% | 96.7% | 113% | 96.5% | 107% | 84.5% | 86.3% | 107% | growth at 10 µM (MDA-MB-231): 87.4%; growth at 10 µM (786-0): 109%; growth at 10 µM (T47D): 83%; growth at 10 µM (IGROV-1): 46.3%; growth at 10 µM (EKVX): 99.7%; growth at 10 µM (Malme-3M): 116%; growth at 10 µM (SW-620): 47.8%; growth at 10 µM (UACC-257): 92.9%; growth at 10 µM (ACHN): 99.2%; growth at 10 µM (U-251): 57.3%; growth at 10 µM (TK-10): 111%; growth at 10 µM (BT-549): 87.6%; growth at 10 µM (HCT-15): 76.7%; growth at 10 µM (SF-268): 82.4%; growth at 10 µM (OVCAR-8): 75.8%; growth at 10 µM (HCT-116): -5.9%; growth at 10 µM (PC-3): 61.4% |
| O=C(CO[N+](=O)[O-])Nc1ccc(C(=O)/C=C/c2ccc(Cl)cc2)cc1 | -61.3% | 0.33% | 89.7% | -60.6% | 49.2% | 105% | 3.46% | -14.2% | 1.64% | 20.1% | 76.1% | -2.76% | 81.7% | 79.9% | 36.1% | 67% | 72.5% | 29.9% | 69.7% | 103% | growth at 10 µM (MDA-MB-231): 55%; growth at 10 µM (786-0): 75%; growth at 10 µM (T47D): 55.5%; growth at 10 µM (IGROV-1): -26%; growth at 10 µM (EKVX): 67.9%; growth at 10 µM (Malme-3M): 79.1%; growth at 10 µM (SW-620): -61.8%; growth at 10 µM (UACC-257): 61.2%; growth at 10 µM (ACHN): 62.3%; growth at 10 µM (U-251): 14.9%; growth at 10 µM (TK-10): 45.7%; growth at 10 µM (BT-549): 18.9%; growth at 10 µM (HCT-15): 58.9%; growth at 10 µM (SF-268): 44.9%; growth at 10 µM (OVCAR-8): 27.2%; growth at 10 µM (HCT-116): -49.2%; growth at 10 µM (PC-3): 27.6% |
